Source: patent publication US9777069B2, “Compositions and methods for detection of methadone metabolite” (Siemens Healthcare Diagnostics Inc., priority 2012, dated 2017)

Test system: anti-EDDP antibody
Assay: Assay for EDDP analyte: homogeneous enzyme immunoassay with G6PDH-product of Step 14-SH-Step 14 conjugate, absorbance at 340 nm
Format: binding
Conditions: 1 min after enzyme conjugate addition, Tris buffer pH 7.8
Procedure: The experiments were conducted on an AGILENT® 8453 UV spectrophotometer (Agilent Technologies, Santa Clara Calif.). Typically, 2.5 mL Tris buffer (50 mM, containing 3.3 mM MgCl2, pH 7.8), 0.2 ml anti-EDDP antibody (1 mg/mL, commercially available from Lin Zhi International Inc. Sunnyvale Calif.), 0.1 mL glucose-6-phosphate (0.1 M), 0.1 mL NADP (0.006M) were taken in a quartz cuvette. To this, 0-4029 ng/mL EDDP in 10 μL methanol was added and mixed well. Then, 10 μL G6PDH-product of Step 14-SH-Step 14 (1 mg/mL) was added and mixed well. Increase in the absorbance at 340 nm was monitored at 1 min after the enzyme addition.

Structure (SMILES): CC=C1N(C)C(C)CC1(c1ccccc1)c1ccccc1 (stereo not drawn) [EDDP, 2-ethylidene-1,5-dimethyl-3,3-diphenylpyrrolidine]
- mAu 340 nm (increase in the absorbance at 340 nm) (EDDP 370 ng/mL): 456 mAu
- mAu 340 nm (increase in the absorbance at 340 nm) (EDDP 1221 ng/mL): 497 mAu
- mAu 340 nm (increase in the absorbance at 340 nm) (EDDP 4029 ng/mL): 561 mAu
